Data as given in ChEMBL document CHEMBL4118160, “Heterocycles: Versatile control elements in bioactive macrocycles” (Bioorg Med Chem, 2018).

Target: Integrin alpha-V/beta-3 (Homo sapiens, UniProt P05106+P06756)
Assay: Inhibition of vitronectin binding to alphaVbeta3 integrin (unknown origin) measured after 3 hrs
Format: protein-complex assay

Sequence of Integrin alpha-V/beta-3 (P05106 27-788 limits assumed): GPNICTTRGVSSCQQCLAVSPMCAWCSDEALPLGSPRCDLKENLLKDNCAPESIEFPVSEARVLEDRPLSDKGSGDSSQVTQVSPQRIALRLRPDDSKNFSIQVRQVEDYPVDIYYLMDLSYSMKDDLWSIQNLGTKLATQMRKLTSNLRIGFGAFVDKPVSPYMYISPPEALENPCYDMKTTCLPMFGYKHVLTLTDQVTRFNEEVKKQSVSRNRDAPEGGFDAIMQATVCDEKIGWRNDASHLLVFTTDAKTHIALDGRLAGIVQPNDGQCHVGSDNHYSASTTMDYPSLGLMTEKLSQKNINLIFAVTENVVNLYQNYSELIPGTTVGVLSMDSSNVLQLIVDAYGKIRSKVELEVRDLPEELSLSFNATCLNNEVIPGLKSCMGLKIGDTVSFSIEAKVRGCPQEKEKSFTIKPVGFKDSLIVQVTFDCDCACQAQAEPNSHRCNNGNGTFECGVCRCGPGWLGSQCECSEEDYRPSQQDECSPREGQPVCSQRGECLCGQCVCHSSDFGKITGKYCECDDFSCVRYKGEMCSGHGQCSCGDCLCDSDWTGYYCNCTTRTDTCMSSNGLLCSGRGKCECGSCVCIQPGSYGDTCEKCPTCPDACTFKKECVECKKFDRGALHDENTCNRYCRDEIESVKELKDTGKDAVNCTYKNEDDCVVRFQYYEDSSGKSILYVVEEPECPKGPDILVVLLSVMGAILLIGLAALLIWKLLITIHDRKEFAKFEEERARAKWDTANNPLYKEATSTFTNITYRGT
Sequence of Integrin alpha-V/beta-3 (P06756 31-889 limits assumed): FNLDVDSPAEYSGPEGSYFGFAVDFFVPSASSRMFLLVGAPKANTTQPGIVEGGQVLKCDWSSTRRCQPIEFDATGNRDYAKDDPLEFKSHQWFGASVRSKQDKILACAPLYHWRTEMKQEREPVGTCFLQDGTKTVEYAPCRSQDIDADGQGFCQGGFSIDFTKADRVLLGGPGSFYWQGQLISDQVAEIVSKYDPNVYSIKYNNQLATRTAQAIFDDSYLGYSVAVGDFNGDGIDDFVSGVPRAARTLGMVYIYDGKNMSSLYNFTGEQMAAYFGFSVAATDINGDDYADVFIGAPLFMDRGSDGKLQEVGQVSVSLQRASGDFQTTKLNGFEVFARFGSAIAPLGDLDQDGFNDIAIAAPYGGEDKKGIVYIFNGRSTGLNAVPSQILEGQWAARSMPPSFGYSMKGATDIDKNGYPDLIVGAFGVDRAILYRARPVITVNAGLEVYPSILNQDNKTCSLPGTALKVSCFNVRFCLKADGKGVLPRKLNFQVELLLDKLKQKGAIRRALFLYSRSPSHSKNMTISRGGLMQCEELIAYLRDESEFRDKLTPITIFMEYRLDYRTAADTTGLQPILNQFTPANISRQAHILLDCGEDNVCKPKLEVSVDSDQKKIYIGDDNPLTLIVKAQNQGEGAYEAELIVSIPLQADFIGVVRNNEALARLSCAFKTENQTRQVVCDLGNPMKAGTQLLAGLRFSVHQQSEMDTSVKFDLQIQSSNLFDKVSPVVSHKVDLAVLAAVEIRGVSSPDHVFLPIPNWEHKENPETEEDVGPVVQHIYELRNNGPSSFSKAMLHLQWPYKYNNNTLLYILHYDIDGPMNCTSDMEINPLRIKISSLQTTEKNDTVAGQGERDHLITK
Sequence of Integrin alpha-V/beta-3 (P06756 891-1048 limits assumed): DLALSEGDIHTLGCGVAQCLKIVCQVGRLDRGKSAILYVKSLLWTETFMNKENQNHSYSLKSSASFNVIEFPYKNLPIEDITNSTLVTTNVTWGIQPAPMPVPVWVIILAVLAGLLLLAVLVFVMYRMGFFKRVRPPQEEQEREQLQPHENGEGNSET

| SMILES | IC50 |
| --- | --- |
| N=C(N)NCCC[C@H]1NC(=O)CNC(=O)[C@@H](CC(=O)O)CN[C@@H]2O[C@H](C1=O)[C@@H](OCc1ccccc1)[C@H](OCc1ccccc1)[C@H]2OCc1ccccc1 | ≤ 150 nM |
| N=C(N)NCCC[C@H]1NC(=O)CNC(=O)[C@@H](CC(=O)O)CN[C@H]2O[C@H](C1=O)[C@@H](OCc1ccccc1)[C@H](OCc1ccccc1)[C@H]2OCc1ccccc1 | ≤ 150 nM |
